Legend:
Tubulin = target: T1, Tubulin (Sus scrofa, UniProt P02550+P02554); experiment: Assessment of the inhibition of tubulin polymerization (turbidimetry at 350 nm); assay type: biochemical; settings: tubulin purified from pig brains, 10 μM; concentration inhibiting the rate of polymerization by 50%
T1 construct: Tubulin is purified from pig brains according to published methods; from tissue; host or cells: pig brain
Protocol: Tubulin is purified from pig brains according to published methods (Shelanski et al., 1973, Proc. Natl. Acad. Sci. USA, 70, 765-768, Weingarten et al., 1975, Proc. Natl. Acad. Sci. USA, 72, 1858-1862). Briefly, the brains are ground and centrifuged in an extraction buffer. The tubulin, present in the extract supernatant, is subjected to two successive cycles of polymerization at 37° C. and depolymerization at 4° C., before being separated from the MAPS (microtubule associated proteins) by chromatography on a phosphocellulose P11 column (Whatman). The tubulin thus isolated is more than 95% pure. It is stored in a buffer known as RB/2 30% glycerol, the composition of which is 50 mM MES-NaOH [2-(N-morpholino)ethanesulfonic acid], pH 6.8; 0.25 mM MgCl2; 0.5 mM EGTA; 30% (v/v) glycerol, 0.2 mM GTP (guanosine 5′-triphosphate).
The polymerization of the tubulin into microtubules is monitored by turbidimetry as follows: the tubulin is adjusted to a concentration of 10 μM (1 mg/ml) in the RB/2 30% glycerol buffer, to which are added 1 mM GTP and 6 mM MgCl2. The polymerization is initiated by increasing the temperature from 6° C. to 37° C. in a cuvette with 1 cm optical path length, placed in a Uvikon 931 spectrophotometer (Kontron) equipped with a thermostatically-regulated cuvette holder. The increase in turbidity of the solution is followed at 350 nm.
The products are dissolved at 10 mM in DMSO and added at variable concentrations (0.5 to 10 μM) to the tubulin solution before polymerization. The IC50 value is defined as the concentration of product which inhibits the rate of polymerization by 50%. A product with an IC50 value of less than or equal to […] is considered to be very active.

HCT116 cells = experiment: Inhibition of proliferation of the human colon tumor line HCT116 ([14C]thymidine incorporation); assay type: cell-based; settings: HCT-116, 48 hours at 37° C.
Protocol: Assay for Determining the Inhibition of Proliferation of the Human Colon Tumor Line HCT116
The proliferation of HCT116 cells is evaluated by measuring the incorporation of [^14C]thymidine in the following way. The HCT116 cells (from ATCC) are cultured in a DMEM medium (Gibco) which contains 10% foetal calf serum and antibiotics (1% penicillin, 1% streptomycin). To carry out the proliferation assay, the cells are seeded into 96-well Cytostar microplates (Amersham), at a rate of 5000 cells per well. The [^14C]thymidine (0.1 μCi/well) and the products to be evaluated are then added. Variable concentrations of products up to 10 μM are used; the DMSO (solvent used to dissolve the products) should not exceed 0.5% in the medium. 48 hours after incubation at 37° C., the radioactivity incorporated into the cells is measured by counting the plates in a Tri-Lux counter (Wallac). The IC50 value is defined as the concentration of product which reduces the radioactivity by 50% compared with an untreated control. A product with an IC50 value of less than 10 μM is considered to be cytotoxic.

T1 sequence (P02550 whole entry): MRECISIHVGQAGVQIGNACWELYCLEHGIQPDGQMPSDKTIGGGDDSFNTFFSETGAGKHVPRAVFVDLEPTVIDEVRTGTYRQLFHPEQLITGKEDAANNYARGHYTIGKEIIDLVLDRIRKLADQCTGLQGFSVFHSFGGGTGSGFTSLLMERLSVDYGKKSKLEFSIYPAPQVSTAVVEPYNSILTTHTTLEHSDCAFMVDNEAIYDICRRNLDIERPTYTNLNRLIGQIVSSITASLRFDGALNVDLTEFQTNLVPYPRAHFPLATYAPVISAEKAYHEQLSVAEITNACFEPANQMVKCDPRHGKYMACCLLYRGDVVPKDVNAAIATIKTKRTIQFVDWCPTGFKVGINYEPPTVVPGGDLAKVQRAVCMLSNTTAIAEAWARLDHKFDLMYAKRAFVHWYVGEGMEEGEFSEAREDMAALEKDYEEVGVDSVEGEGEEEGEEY
T1 sequence (P02554 whole entry): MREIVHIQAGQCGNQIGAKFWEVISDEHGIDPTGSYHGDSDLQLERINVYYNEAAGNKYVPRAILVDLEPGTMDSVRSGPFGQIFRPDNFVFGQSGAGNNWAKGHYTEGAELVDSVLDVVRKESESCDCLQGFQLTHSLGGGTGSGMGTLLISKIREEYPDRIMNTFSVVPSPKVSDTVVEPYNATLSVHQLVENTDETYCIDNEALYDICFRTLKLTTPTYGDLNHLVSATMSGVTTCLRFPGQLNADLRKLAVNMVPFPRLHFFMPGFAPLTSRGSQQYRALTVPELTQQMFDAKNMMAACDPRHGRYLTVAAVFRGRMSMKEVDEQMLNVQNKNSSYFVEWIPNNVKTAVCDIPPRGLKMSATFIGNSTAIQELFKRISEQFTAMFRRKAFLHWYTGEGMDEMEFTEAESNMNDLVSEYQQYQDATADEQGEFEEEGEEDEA

Structure (SMILES) | IC50 (Tubulin) [nM] | melting point [°C] | IC50 (HCT116 cells) [nM]
COc1cc(OC)cc(N2CCN(C(=O)c3cc4cc(OC)ccc4n3-c3ccccc3)CC2)c1 [Example 9, [4-(3,5-dimethoxyphenyl)piperazin-1-yl](5-methoxy-1-phenyl-1H-indol-2-yl)methanone] | 1200 | 165 | –
O=C(c1c2ccccc2nn1-c1ccccc1)N1CCN(c2cccc(Cl)c2)CC1 [Example 2] | 800 | – | 6
O=C(c1c(-c2ccccc2)sc2ccccc12)N1CCN(c2cccc(Cl)c2)CC1 [Example 4, [4-(3-chlorophenyl)piperazin-1-yl](2-phenylbenzo[b]thiophen-3-yl)methanone] | 1100 | – | 990
COc1cc(OC)cc(N2CCN(C(=O)c3cc4n(c3-c3ccccc3)CSC4)CC2)c1 [Example 14, [4-(3,5-dimethoxyphenyl)piperazin-1-yl](5-phenyl-1H-pyrrolo-[1,2-c]thiazol-6-yl)methanone] | – | 98 | –
COc1cc(OC)cc(N2CCN(C(=O)c3cc4ccccc4n3-c3ccccc3)CC2)c1 [Example 8, [4-(3,5-dimethoxyphenyl)piperazin-1-yl](1-phenyl-1H-indol-2-yl)methanone] | 1100 | 146 | –
COc1cc(OC)cc(N2CCN(C(=O)c3c4ccccc4nn3-c3ccccc3)CC2)c1 [Example 3] | 500 | – | 9.8
O=C(c1cc2ccccc2n1-c1ccccc1)N1CCN(c2cccc(Cl)c2)CC1 [Example 1, [4-(3-chlorophenyl)piperazin-1-yl](1-phenyl-1H-indol-2-yl)methanone] | 800 | – | 76
COc1ccc2c(c1)cc(C(=O)N1CCN(c3cccc(Cl)c3)CC1)n2-c1ccccc1 [Example 10, [4-(3-chlorophenyl)piperazin-1-yl](5-methoxy-1-phenyl-1H-indol-2-yl)methanone] | 2600 | 125 | –
O=C(C1=Nc2ccc(Cl)cc2C1c1ccccc1)N1CCN(c2cccc(Cl)c2)CC1 (stereo not drawn) [Example 11, [4-(3-chlorophenyl)piperazin-1-yl](5-chloro-3-phenyl-1H-indol-2-yl)methanone] | 800 | 188 | –
NC(=O)c1cccc(N2CCN(C(=O)c3cc4ccccc4n3-c3ccccc3)CC2)c1 [Example 7, [4-(3-carboxamidophenyl)piperazin-1-yl](1-phenyl-1H-indol-2-yl)methanone] | 900 | – | –
